Reference: ChEMBL document CHEMBL1147799, “An integrated in silico 3D model-driven discovery of a novel, potent, and selective amidosulfonamide 5-HT1A agonist (PRX-00023) for the treatment of anxiety and depression” (J Med Chem, 2006)
pEC50, pIC50, pKi: −log10 of the molar value. The source made the active and inactive calls. The calls are words filed in the database; no cut-off is given here.

Key:
[1] = biological target: 5-hydroxytryptamine receptor 1A (Rattus norvegicus, UniProt P19327); assay: Binding affinity to 5HT1A receptor in rat cerebral cortex by radioligand binding assay; assay type: tissue-based
[2] = Protein binding in human serum at 10 uM; assay type: ADME, organism-based; conditions: read-out: PPB (converted)
[3] = biological target: 5-hydroxytryptamine receptor 4 (Homo sapiens, UniProt Q13639); assay: Binding affinity to human 5HT4e receptor by radioligand binding assay
Nociceptin receptor = Nociceptin receptor (Homo sapiens, UniProt P41146); assay: Binding affinity to orphanin receptor by radioligand binding assay
[4] = Binding affinity to neurotensin receptor by radioligand binding assay
[5] = Half life in human liver microsome at 5 uM; assay type: ADME; conditions: liver microsomes
[6] = Cmax in Beagle dog at 3 mg/kg, po; assay type: ADME, organism-based, Canis lupus familiaris; set-up: dose 3 mg/kg, route oral; conditions: in vivo
Translocator protein = Translocator protein (Homo sapiens, UniProt P30536); assay: Binding affinity to benzodiazepine receptor by radioligand binding assay
[7] = Binding affinity to chemokine receptor by radioligand binding assay
[8] = biological target: T1, 5-hydroxytryptamine receptor 1A (Homo sapiens, UniProt P08908); assay: Activity against 5HT1A receptor by Gi-[35S]GTP-gamma-S binding assay; assay type: functional
T1 sequence (P08908 whole entry): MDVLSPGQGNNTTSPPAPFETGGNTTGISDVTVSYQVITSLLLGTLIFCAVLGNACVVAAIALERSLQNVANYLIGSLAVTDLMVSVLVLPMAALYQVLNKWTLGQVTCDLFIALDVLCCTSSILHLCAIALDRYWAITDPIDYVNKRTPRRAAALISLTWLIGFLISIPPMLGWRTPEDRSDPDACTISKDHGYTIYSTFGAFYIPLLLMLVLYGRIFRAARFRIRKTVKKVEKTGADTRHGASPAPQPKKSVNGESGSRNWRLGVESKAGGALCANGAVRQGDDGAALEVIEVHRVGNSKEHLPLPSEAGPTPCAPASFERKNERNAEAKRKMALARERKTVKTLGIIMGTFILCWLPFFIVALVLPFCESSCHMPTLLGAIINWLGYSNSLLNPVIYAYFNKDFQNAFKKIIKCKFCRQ

[9] = biological target: Muscarinic acetylcholine receptor; assay: Binding affinity to muscarinic receptor by radioligand binding assay; assay type: protein assay
Angiotensin II receptor = Angiotensin II receptor (Homo sapiens, UniProt P30556+P50052); assay: Binding affinity to angiotensin2 receptor by radioligand binding assay; assay type: protein assay
D(2) dopamine receptor = D(2) dopamine receptor (Homo sapiens, UniProt P14416); assay: Binding affinity to D2 receptor by radioligand binding assay
[10] = Binding affinity to bradykinin receptor by radioligand binding assay
[11] = biological target: Sodium-dependent noradrenaline transporter (Homo sapiens, UniProt P23975); assay: Binding affinity to norepinephrine transporter by radioligand binding assay
[12] = biological target: T1, 5-hydroxytryptamine receptor 1A; assay: Displacement of [3H]8-OH-DPAT from human 5HT1A receptor in HEK293 cells
[13] = Half life in human liver S9 fraction at 5 uM; assay type: ADME
Adrenergic receptor beta = Adrenergic receptor beta (Homo sapiens, UniProt P08588+P07550+P13945); assay: Binding affinity to beta adrenergic receptor by radioligand binding assay; assay type: protein assay
[14] = Ratio of drug level in brain against serum in Sprague-Dawley rat at 3 mg/kg, po or 1 mg/kg, iv after 1 hr; assay type: ADME, organism-based; conditions: read-out: BBR
[15] = Half life in Beagle dog at 3 mg/kg, po; assay type: ADME, organism-based, Canis lupus familiaris; set-up: dose 3 mg/kg, route oral; conditions: in vivo
[16] = biological target: 5-hydroxytryptamine receptor 2A (Homo sapiens, UniProt P28223)
Description: Binding affinity to 5HT2A receptor by radioligand binding assay

Mus musculus = assay: Decrease in stress-induced hyperthermia in 129S6/SvEvTac mouse at 20 mg/kg, po; assay type: functional, organism-based; set-up: dose 20 mg/kg
[17] = biological target: T2, Voltage-gated inwardly rectifying potassium channel KCNH2 (Homo sapiens, UniProt Q12809); assay: Binding affinity to potassium channel by radioligand binding assay
[18] = biological target: Adrenergic receptor alpha-1 (Rattus norvegicus) (UniProt P15823+P23944+P43140); assay: Displacement of [3H]prazosin from Adrenergic alpha-1 receptor in rat cerebral cortex cells at 1 uM; assay type: cell-based
[19] = biological target: 5-hydroxytryptamine receptor 7 (Homo sapiens, UniProt P34969)
Description: Binding affinity to 5HT7 receptor by radioligand binding assay

[20] = Binding affinity to neurokinin receptor by radioligand binding assay
Cytochrome P450 1A2 = Cytochrome P450 1A2 (Homo sapiens, UniProt P05177); assay: Inhibition of human recombinant cytochrome P450 1A2; assay type: ADME; conditions: recombinant enzyme
[21] = biological target: Sodium-dependent dopamine transporter (Homo sapiens, UniProt Q01959); assay: Binding affinity to dopamine transporter by radioligand binding assay
[22] = biological target: 5-hydroxytryptamine receptor 2C (Homo sapiens, UniProt P28335); assay: Binding affinity to human 5HT2C receptor by radioligand binding assay
Cytochrome P450 3A4 = Cytochrome P450 3A4 (Homo sapiens, UniProt P08684); assay: Inhibition of human recombinant cytochrome P450 3A4; assay type: ADME; conditions: recombinant enzyme
[23] = biological target: Opioid receptors; mu/kappa/delta (Homo sapiens, UniProt P41145+P41143+P35372); assay: Binding affinity to opioid receptor by radioligand binding assay; assay type: protein assay
Somatostatin receptor = assay: Binding affinity to somatostatin receptor by radioligand binding assay; assay type: protein assay
[24] = Oral bioavailability in Beagle dog at 3 mg/kg, po and 1 mg/kg, iv; assay type: ADME, organism-based, Canis lupus familiaris; conditions: in vivo
[25] = biological target: Endothelin receptor, ET-A/ET-B (Homo sapiens, UniProt P24530+P25101); assay: Binding affinity to endothelin receptor by radioligand binding assay; assay type: protein assay
[26] = Binding affinity to chloride channel by radioligand binding assay
Homo sapiens = organism: Homo sapiens; assay: Transient increase in prolactin level in human serum at greater than 30 mg; assay type: functional, organism-based
[27] = Binding affinity to vasopressin receptor by radioligand binding assay
[28] = biological target: Serotonin 3 receptor (5HT3) (Mus musculus, UniProt Q9JHJ5+P23979); assay: Binding affinity to mouse 5HT3 receptor by radioligand binding assay; assay type: protein assay
[29] = Cmax in Sprague-Dawley rat at 3 mg/kg, po; assay type: ADME, organism-based; set-up: dose 3 mg/kg, route oral; conditions: in vivo
[30] = Protein binding in human serum at 2 uM; assay type: ADME, organism-based; conditions: read-out: PPB (converted)
[31] = Terminal half life in human; assay type: ADME, organism-based; conditions: in vivo
Cytochrome P450 2C9 = Cytochrome P450 2C9 (Homo sapiens, UniProt P11712); assay: Inhibition of human recombinant cytochrome P450 2C9; assay type: ADME; conditions: recombinant enzyme
[32] = biological target: T2, Voltage-gated inwardly rectifying potassium channel KCNH2; assay: Inhibition of hERG potassium channel in HEK293 cells by patch clamp assay
[33] = biological target: 5-hydroxytryptamine receptor 1B (Rattus norvegicus, UniProt P28564); assay: Binding affinity to 5HT1B receptor in rat cerebral cortex by radioligand binding assay; assay type: tissue-based
[34] = biological target: 5-hydroxytryptamine receptor 2B (Homo sapiens, UniProt P41595); assay: Binding affinity to 5HT2B receptor by radioligand binding assay
[35] = Toxicity in po dosed Sprague-Dawley rat; assay type: organism-based; conditions: in vivo
[36] = Binding affinity to melanocortin receptor by radioligand binding assay
[37] = Binding affinity to sodium channel by radioligand binding assay
Cytochrome P450 2C19 = Cytochrome P450 2C19 (Homo sapiens, UniProt P33261); assay: Inhibition of human recombinant cytochrome P450 2C19; assay type: ADME; conditions: recombinant enzyme
Sequence of Cytochrome P450 2C19 (P33261 whole entry): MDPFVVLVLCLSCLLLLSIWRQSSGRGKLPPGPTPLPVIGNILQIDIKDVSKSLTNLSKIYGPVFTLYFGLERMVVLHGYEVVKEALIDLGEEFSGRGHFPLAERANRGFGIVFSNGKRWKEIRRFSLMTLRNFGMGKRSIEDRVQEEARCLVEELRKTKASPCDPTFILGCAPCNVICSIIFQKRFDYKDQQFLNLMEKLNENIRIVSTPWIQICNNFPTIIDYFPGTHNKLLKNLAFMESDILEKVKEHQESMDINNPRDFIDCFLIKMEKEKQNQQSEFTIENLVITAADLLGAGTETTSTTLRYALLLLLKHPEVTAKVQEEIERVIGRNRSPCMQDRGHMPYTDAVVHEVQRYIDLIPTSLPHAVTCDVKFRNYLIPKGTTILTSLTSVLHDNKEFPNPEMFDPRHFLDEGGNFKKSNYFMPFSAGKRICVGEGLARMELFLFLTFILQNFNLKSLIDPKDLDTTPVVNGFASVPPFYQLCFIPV

T2 sequence (Q12809 whole entry): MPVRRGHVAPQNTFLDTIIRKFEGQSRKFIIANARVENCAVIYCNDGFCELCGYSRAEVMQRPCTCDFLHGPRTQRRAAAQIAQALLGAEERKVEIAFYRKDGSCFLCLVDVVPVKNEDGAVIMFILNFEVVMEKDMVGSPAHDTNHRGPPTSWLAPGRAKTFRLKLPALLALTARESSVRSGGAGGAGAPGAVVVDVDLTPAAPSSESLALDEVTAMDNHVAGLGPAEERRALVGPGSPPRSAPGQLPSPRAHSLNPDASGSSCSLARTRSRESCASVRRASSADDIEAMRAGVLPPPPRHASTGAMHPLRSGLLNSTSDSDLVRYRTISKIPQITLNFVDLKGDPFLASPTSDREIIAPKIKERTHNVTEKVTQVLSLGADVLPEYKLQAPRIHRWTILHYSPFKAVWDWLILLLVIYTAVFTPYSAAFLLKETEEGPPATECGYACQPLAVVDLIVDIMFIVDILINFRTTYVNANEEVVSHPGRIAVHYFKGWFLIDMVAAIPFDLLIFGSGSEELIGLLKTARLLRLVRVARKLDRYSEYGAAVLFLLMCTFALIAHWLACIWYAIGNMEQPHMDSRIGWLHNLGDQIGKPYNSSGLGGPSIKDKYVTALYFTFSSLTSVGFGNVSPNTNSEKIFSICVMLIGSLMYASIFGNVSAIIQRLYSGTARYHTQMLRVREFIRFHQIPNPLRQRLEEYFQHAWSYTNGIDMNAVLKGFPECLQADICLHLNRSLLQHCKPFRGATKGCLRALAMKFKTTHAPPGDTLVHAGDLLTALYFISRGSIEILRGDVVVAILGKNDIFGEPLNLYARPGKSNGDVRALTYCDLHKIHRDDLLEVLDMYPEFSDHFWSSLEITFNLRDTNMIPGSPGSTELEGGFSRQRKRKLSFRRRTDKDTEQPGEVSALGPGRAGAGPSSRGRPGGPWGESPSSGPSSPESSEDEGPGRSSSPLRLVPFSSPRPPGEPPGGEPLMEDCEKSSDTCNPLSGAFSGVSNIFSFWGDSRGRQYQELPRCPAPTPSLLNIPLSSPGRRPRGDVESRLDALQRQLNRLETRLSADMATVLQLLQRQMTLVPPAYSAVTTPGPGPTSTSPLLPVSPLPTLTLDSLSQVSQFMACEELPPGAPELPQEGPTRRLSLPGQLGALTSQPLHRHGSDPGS
Sequence of Cytochrome P450 1A2 (P05177 whole entry): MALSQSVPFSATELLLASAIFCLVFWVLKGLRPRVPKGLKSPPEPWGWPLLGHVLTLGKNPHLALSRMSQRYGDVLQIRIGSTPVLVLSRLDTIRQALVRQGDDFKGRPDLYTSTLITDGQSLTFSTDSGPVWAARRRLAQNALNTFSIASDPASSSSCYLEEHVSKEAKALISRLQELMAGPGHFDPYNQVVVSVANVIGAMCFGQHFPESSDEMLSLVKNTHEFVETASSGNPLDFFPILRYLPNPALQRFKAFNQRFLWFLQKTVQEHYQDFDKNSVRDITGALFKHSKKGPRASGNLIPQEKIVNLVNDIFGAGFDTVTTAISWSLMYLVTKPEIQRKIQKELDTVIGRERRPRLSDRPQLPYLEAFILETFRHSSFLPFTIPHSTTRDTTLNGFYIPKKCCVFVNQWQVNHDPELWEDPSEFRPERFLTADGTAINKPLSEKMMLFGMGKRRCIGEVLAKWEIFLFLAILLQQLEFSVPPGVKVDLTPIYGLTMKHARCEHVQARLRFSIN
Sequence of D(2) dopamine receptor (P14416 whole entry): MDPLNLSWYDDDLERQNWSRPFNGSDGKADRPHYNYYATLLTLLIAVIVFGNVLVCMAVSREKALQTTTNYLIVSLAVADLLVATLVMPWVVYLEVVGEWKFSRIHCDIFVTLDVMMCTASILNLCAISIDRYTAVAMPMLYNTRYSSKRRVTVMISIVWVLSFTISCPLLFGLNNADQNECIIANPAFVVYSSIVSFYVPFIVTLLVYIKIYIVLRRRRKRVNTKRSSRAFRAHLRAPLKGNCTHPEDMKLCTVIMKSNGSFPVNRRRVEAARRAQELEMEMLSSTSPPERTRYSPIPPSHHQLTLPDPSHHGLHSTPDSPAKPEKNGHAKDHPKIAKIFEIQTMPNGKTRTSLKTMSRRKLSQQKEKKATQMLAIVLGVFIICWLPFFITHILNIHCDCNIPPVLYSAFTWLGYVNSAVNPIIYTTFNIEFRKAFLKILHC
Sequence of 5-hydroxytryptamine receptor 2C (P28335 whole entry): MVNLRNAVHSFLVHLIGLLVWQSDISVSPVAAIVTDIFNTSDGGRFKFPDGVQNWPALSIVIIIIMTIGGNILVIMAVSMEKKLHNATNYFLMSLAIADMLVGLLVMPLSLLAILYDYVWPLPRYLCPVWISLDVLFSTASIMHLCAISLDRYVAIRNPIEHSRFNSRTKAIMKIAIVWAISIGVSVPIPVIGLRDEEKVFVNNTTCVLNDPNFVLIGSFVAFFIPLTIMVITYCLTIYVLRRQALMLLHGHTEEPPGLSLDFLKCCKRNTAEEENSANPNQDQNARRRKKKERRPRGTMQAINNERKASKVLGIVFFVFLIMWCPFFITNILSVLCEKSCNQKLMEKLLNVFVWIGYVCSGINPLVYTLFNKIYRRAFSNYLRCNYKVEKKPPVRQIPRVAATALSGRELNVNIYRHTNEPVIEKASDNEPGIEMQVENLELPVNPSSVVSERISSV
Sequence of 5-hydroxytryptamine receptor 7 (P34969 whole entry): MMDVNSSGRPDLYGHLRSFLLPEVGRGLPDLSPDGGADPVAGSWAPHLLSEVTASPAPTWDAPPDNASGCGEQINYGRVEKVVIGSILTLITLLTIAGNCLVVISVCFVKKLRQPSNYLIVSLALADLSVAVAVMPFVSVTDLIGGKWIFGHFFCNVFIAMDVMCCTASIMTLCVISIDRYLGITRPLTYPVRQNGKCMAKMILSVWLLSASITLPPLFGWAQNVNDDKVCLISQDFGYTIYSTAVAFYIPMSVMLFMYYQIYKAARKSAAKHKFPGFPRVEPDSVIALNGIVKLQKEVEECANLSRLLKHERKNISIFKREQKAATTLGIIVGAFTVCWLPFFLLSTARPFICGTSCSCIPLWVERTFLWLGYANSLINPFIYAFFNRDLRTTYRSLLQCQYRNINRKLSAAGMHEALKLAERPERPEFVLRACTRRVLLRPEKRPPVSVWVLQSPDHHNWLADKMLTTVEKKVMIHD
Sequence of Nociceptin receptor (P41146 whole entry): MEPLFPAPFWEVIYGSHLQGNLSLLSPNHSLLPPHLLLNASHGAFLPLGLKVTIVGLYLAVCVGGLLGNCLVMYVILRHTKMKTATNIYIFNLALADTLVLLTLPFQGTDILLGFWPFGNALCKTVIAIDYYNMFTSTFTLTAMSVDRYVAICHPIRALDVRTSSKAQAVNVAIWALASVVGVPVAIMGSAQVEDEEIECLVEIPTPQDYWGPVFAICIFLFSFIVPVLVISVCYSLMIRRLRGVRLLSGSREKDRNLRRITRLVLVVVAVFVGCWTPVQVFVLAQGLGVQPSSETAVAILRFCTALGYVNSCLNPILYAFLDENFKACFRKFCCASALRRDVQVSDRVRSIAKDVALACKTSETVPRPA
Sequence of 5-hydroxytryptamine receptor 2A (P28223 whole entry): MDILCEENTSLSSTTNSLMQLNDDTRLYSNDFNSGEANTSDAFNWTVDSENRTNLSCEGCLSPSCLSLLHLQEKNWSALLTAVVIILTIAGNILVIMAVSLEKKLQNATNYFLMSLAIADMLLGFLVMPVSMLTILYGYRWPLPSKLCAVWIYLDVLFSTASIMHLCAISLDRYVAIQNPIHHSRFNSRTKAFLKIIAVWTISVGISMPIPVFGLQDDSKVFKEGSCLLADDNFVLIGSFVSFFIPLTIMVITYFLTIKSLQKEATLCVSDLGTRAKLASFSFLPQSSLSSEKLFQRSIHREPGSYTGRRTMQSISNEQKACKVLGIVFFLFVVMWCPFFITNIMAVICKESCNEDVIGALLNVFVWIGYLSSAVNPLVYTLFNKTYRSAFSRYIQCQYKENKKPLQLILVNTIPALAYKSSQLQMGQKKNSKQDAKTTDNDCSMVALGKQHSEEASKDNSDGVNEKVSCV
Sequence of Cytochrome P450 2C9 (P11712 whole entry): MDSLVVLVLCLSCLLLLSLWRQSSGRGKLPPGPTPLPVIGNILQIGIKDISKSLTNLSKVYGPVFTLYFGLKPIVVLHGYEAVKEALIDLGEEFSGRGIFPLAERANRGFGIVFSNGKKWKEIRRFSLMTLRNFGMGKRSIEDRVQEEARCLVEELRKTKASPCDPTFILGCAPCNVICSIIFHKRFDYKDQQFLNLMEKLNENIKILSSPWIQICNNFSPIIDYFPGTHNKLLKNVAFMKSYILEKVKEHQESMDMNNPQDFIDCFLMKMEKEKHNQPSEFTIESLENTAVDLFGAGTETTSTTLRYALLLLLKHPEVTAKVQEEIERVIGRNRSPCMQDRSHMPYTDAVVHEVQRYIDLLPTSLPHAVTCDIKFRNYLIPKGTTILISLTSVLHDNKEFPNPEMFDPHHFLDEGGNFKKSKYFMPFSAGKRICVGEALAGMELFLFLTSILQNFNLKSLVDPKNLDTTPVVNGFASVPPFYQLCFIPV

CC(=O)Nc1cccc(N2CCN(CCCCNS(=O)(=O)CC3CCCCC3)CC2)c1 [NALUZOTAN]
pKi [1]: 7.77 | fraction unbound at 10 µM [2]: 0.08 | pKi [3]: < 5.30 | pKi (Nociceptin receptor): < 5.70 | pKi [4]: < 5.70 | half-life at 5 µM [5]: 0.467 h | Cmax [6]: 174 ng/mL | pKi (Translocator protein): < 5.70 | pKi [7]: < 5.70 | pEC50 [8]: 7.70 | Ki [9]: > 2 µM | Ki (Angiotensin II receptor): > 2 µM | pKi (D(2) dopamine receptor): < 5.70 | pKi [10]: < 5.70 | pKi [11]: < 5.70 | pKi [12]: 8.29 | half-life at 5 µM [13]: 1.08 h | Ki (Adrenergic receptor beta): > 2 µM | Kp at 1 h [14]: 0.5 | half-life [15]: 1.1 h | pKi [16]: < 5.70 | Activity (Mus musculus): Active | pKi [17]: < 5.70 | Activity [18]: 47% | pKi [19]: 6.15 | pKi [20]: < 5.70 | Inhibition (Cytochrome P450 1A2): Not Active | pKi [21]: < 5.70 | pKi [22]: < 5.30 | Inhibition (Cytochrome P450 3A4): Not Active | Ki [23]: > 2 µM | Ki (Somatostatin receptor): > 2 µM | bioavailability [24]: 16% | Ki [25]: > 2 µM | pKi [26]: < 5.00 | Activity (Homo sapiens): Active | pKi [27]: < 5.70 | Ki [28]: > 5 µM | Cmax [29]: 24 ng/mL | fraction unbound at 2 µM [30]: 0.08 | half-life [31]: > 10 h | Inhibition (Cytochrome P450 2C9): Not Active | pIC50 [32]: 5.42 | pKi [33]: < 5.70 | pKi [34]: < 5.30 | MTD [35]: 300 mg/kg | pKi [36]: < 5.70 | pKi [37]: < 5.70 | Inhibition (Cytochrome P450 2C19): Not Active
